We go through three compounds from patent US20050132430A1, “Igamete recruitment and developmental competence in mammals by inhibiting the de-nova sterol biosynthesis and/or promoting sterol efflux” (priority 2001, published 2005).

The subject of data set [1] is mouse cumulus enclosed oocytes (CEO). Put plainly: IVF fertilisation of cumulus enclosed oocytes after IVM with a statin. The data set is classed as cell-based. Here is the method: Mouse oocytes were isolated and cultured according to descriptions in example 3 but for a single deviation in that the IVM culture medium was further supplemented with 1 mg/mL Fetuin (Sigma F-3385, Sigma, U.S.A.). […] The ethanol was necessary in order to dissolve Mevinolin in the medium. After in vitro maturation for 22 h, oocytes were transferred to a fertilisationn medium consisting of minimal essential medium (MEM) (21090-022, Gibco BRL, Scotland), 200 mM L-glutamine (Gibco BRL, Scotland), 20000 IU/L penicillin (Gibco BRL, Scotland), 20000 IU/L streptomycin (Gibco BRL, Scotland), 3 mg/ml BSA (Sigma A-7030, Sigma-Aldrich, Denmark), 2.3 mM sodium pyruvate (S-8636, Sigma), 10 mM ethylen diamine tetra acetic acid (EDTA, Merck 1.08418.0250) and 1 mg/mL Fetuin (Sigma F-3385, Sigma, U.S.A.). Prior to oocyte transfer into the fertilisation medium, mouse sperm for IVF was obtained the following way: A 6-9 month old C57 black×DBA 2 F1 male mouse (M&B A/S, Ry, Denmark) was killed and the epididymis prepared in physiological saline. Thereafter, the epididymis were cut in small pieces and the bulk material was transferred to four 1-mL culture well containing the 800 μL IVF-medium described above and subsequently placed in an incubator (37° C., 95% atmospheric air: 5% CO2). After 1.5 hours of incubation, 300 μL of the upper liquid phase of each of the four wells was aspirated and transferred to a new glass-vial. The resulting pool of motile sperm was counted in a counting chamber and 50000 motile sperm cells was added each oocyte culture. […] These oocytes were left for another 48 hours and subsequently counted according to the maturational status of the oocyte or the progression of the fertilised zygote, i.e. GV-oocytes, GVBD-oocytes, PB-oocytes, PB^2-oocytes (oocytes with a visible second polar body), 2-cells, 3-4-cells, 4+ cells (zygotes with more than 4 blastomeres) and degenerated cells (usually granulated or cells with extensive plasma-membrane ondulation).

For data set [2], the system named is motile cell fraction of epididymis. Kind of data set: C/PL-ratio in motile cell fraction of epididymis after statin administration. The data set is classed as in vivo, mouse. To be noted: 3 i.p. injections of 1.0 mg lovastatin per 30 g body weight, male mice.
Description: Post-pubertal C57 black×DBA 2 F1 male mice (M&B A/S, Ry, Denmark) are used. Four mice are given 3 i.p. injections of 1.0 mg lovastatin per 30 g body weight by dissolving a tablet of Mevacor® (Merck Sharp and Dohme, NL) containing 40 mg lovastatin in 8 ml PBS and injecting 200 μL of the resulting slurry i.p. at 1 p.m. at day-6, -3 and -1, counting the day of epididymal sperm harvest as day 0. […] At 10 a.m on day 0 all mice are killed and the epididymis are prepared in physiological saline. Thereafter, the epididymis are transferred to a 1-mL culture well containing MEM (Gibco BRL, Scotland) supplemented with 2.3 mM pyruvate, 200 mM L-glutamine (Gibco BRL, Scotland), 20000 IU/L penicillin (Gibco BRL, Scotland), 20000 IU/L streptomycin (Gibco BRL, Scotland) and 0.2 mg/ml BSA (Sigma A-7030, Sigma-Aldrich, Denmark) and placed in an incubator (37° C., 95% atmospheric air: 5% CO2).
After 1.5 hours of incubation, the upper liquid phase is aspirated and transferred to a new glass-vial and centrifuged. […] One half is subjected to sterol analysis as designated in the examples above and the total sterol content is calculated to consist of cholesterol, desmosterol, cholesta-7,24-dien-3β-ol, T-MAS and lanosterol. […] The C/PL-ratio is calculated for each individual animal.
Data set [3] concerns C57 black×DBA 2 F1 male mice. Kind of data set: Sperm quality in mice after statin administration. As to conditions: statin administration as in example 6. The data set is classed as in vivo, mouse. Here is the method: The set-up involves the same animals and statin administration as in example 6. The animals are analysed by methods that are developed in order to evaluate the fertilising potential and sperm quality.

Data set [4] concerns C57 black×DBA 2 F1 female mice. Put plainly: Number of 2-cells in tuba of gonadotropin-stimulated female mice after statin administration and mating. As to conditions: for No. of 2-cells in mated animals: pre-pubertal, Gnrh 12 I.U., hCG 10 I.U. The data set is classed as in vivo, mouse. Here is the method:
Prepubertal C57 black×DBA 2 F1 female mice (M&B A/S, Ry, Denmark) were stimulated to super-ovulation (11 a.m. at day 0) by i.p. Injections of 12 IU Menogon® (Ferring, Denmark) in 200 μL H2O. […] Half of the mice were given additional Injections of 1.6 mg lovastatin, by dissolving a tablet of Mevacor® (Merck Sharp and Dohme, NL) containing 40 mg lovastatin in 5 ml PBS and injecting 200 μL of the resulting slurry i.p. at three consecutive days, beginning at day 0. […] The mice were caged individually one hour later with a mature male mouse of the same strain and supplier (1 male per female). Female and male mice were separated at 9 a.m. at day 3, females were left alone for another 48 h. After killing of the females and dissection of the tuba ovarii, 2-cells were flushed into a plastic dish with culture medium (see later) by mounting a glass pipette in one end of the isolated tuba and blowing by mouth through a filter. The total number of 2-cells flushed per mouse were hereafter counted. The 2-cells were subsequently cultured in Universal IVF-medium (Medicult, Denmark) in an incubator (37° C., 95% atmospheric air, 5% CO2) in 4-well dishes (Nunclon 176740, Nunc, Denmark). After 4 days of culture, wells were scored and numbers of morula, blastocyst or degenerated entities were determined by use of a microscope:
Prepubertal C57 black×DBA 2 F1 female mice (M&B A/S, Ry, Denmark) were treated as in example 1 but for a few deviations. […] In experiment B the dose of statins was decreased to 3×100 μg/animal and administered as in example 1. […] In experiment D the dose of gonadotropins were decreased gradually whereas the dose of statins was administered as in example 1.

Data set [5] relates to C57 black×DBA 2 F1 female mice. The data set is described as above. The data set is classed as in vivo, mouse.
Data set [6] has as its system patients with type II hyperlipoprotelnemia. To be noted: oral 40 mg daily for 4 months vs dietary management alone; cited from earlier work.
The test system of data set [7] is gonadotrophin primed prepubertal mouse ovaries. Put plainly: Free cholesterol, FF-MAS and progesterone in ovaries of gonadotrophin primed prepubertal mice (HPLC). As to conditions: statin treatment on top of hCG. The data set is classed as in vivo. Here is the method:
Ovaries were isolated pair-wise, weighed, freeze-dried, weighed again and subsequently extracted in 1.0 ml (v/v) 75% n-heptane: 25% isopropanol. […] Eluted material was detected by ultraviolet light absorption between 200-300 nm. […] Standards for cholesterol (Steraloids […]) and P4 (Sigma P-0130) were obtained commercially whereas the FF-MAS standards used was produced in the laboratory as described before (Baltsen et al., 1999).

For the next data set, the system named is naked mouse oocytes (NO). Kind of data set: IVF fertilisation of naked oocytes after IVM with cyclodextrin. The data set is classed as cell-based. An excerpt:
Mouse oocytes were isolated and cultured according to descriptions in […]. The NOs were divided into […] groups and cultured in dishes containing medium added either 0%o, 0.5%o, 2.0%o or 5%o hydroxypropyl-cyclodextrin (ICN 153540, ICN Ohio, U.S.A.). IVM and IVF conditions were the same as in example 6.

As for Mevinolin, in data set [1] (10 μM statin in IVM-medium 22 h, vs control and 7.5 I.U./L FSH), the “fraction of fertilised oocytes (PB2-oocytes to 4+ cells) after IVF” value is on record as “increased”. Further, in data set [1] (vs control and FSH groups), the “state of development after 72 hours of embryo culture” value is listed as “more progressed state”. The “cumulus expansion after the IVM culture period” value in data set [1] (vs control oocytes) is “extensive cumulus expansion”.
Turning to `CC[C@H](C)C(=O)O[C@H]1C[C@@H](C)C=C2C=C[C@H](C)[C@H](CC[C@@H]3C[C@@H](O)CC(=O)O3)[C@H]21` [Mevacor, lovastatin], in data set [2], the “C/PL-ratios vs control group” value is “lower”. In data set [3], the “fertilising potential and sperm quality vs control animals” value is listed as “fertility premium”. In addition, the “development of cultured 2-cells into blastocysts, recovery rates” value in data set [4] (2-cells cultured in vitro 4 days) is listed as “indiscriminate to controls”. In addition, in data set [4] (3×1.6 mg statin i.p. during follicular phase maturation, vs control), the “number of 2-cells per animal” value is recorded as “increased significantly”. The “No. of 2-cells in mated animals” value in data set [4] (Exp. A, 100 μg single, ovulation) is 27.5 ± 3.5; in data set [4] (Exp. A, 1000 μg single, ovulation), 15.3 ± 7.3; in data set [4] (Exp. B, 100 μg single, ovulation), 19.3 ± 4.1; in data set [4] (Exp. B, 3 × 100 μg multi, follicular phase) it was 6.5 ± 1.0; in data set [5] (Exp. C, mature cycling, Gnrh 12 I.U., 3 × 1.0 mg multi, follicular phase), 11.4 ± 2.9; in data set [5] (Exp. C, mature cycling, Gnrh 15 I.U., hCG 10 I.U., 1.0 mg single, ovulation), 16.8 ± 3.4. The “No. of 2-cells in mated animals” value in data set [5] (Exp. D, pre-pubertal, Gnrh 4 I.U., hCG 5 I.U., 3 × 1.0 mg multi, follicular phase) is listed as 5. In addition, the “more 2-cells as compared to mice stimulated with hormone alone” value in data set [4] (hormone stimulated prepubertal female mice, average, FIG. 5) is given as “about 70%”. Also, in data set [6], the sperm motility result is “small but statistically significant reduction”. Moreover, the “LH/hCG induced accumulation of FF-MAS” value in data set [7] is listed as “completely blocks”. Besides, in data set [7], the “extent of progesterone (steroid) production” value is on record as “not influenced”. For the same compound, the “tendency of decreasing tissue density of free cholesterol in the ovaries after hCG stimulation” value in data set [7] was “pronounced”.
Consider `CC(O)COC[C@H]1O[C@@H]2O[C@H]3[C@H](O)[C@@H](O)[C@@H](O[C@H]4[C@H](O)[C@@H](O)[C@@H](O[C@H]5[C@H](O)[C@@H](O)[C@@H](O[C@H]6[C@H](O)[C@@H](O)[C@@H](O[C@H]7[C@H](O)[C@@H](O)[C@@H](O[C@H]8[C@H](O)[C@@H](O)[C@@H](O[C@H]1[C@H](O)[C@H]2O)O[C@@H]8COCC(C)O)O[C@@H]7COCC(C)O)O[C@@H]6COCC(C)O)O[C@@H]5COCC(C)O)O[C@@H]4COCC(C)O)O[C@@H]3COCC(C)O` (stereo partly drawn) [hydroxypropyl-beta-cyclodextrin, hydroxypropyl-β-cyclodextrin], for which, in the data set on naked mouse oocytes (NO) (0.5, 2.0 or 5 per mille in IVM-medium of NOs vs control), the “fraction of fertilised oocytes (PB2-oocytes to 4+ cells) after IVF” value is “increased”. Besides, in the data set with naked mouse oocytes (NO) (cyclodextrin in the IVM-medium), the rate of degeneration entry is “not affected”.
